Earlier results on one compound are cited in paper PMC12682717, “Radiolabelling and bioequivalence of modified Tamoxifen solid lipid nanoparticles as a targeted chemotherapeutic drug” (Drug Delivery and Translational Research, 2025).

Each structure is given as a SMILES string. Structures can show the parent of a compound that is named as a salt.

On the set-up of series [1]: method as in PMID 32151063, PMID 37906415. The note with it: patients.
The conditions of series [2]: no reference given.

On to `CC/C(=C(\c1ccccc1)c1ccc(OCCN(C)C)cc1)c1ccccc1` [TAM, Tamoxifen citrate], for which, in series [1], the “side effect: depression, irritability or vaginal dryness” value was 35%; the “side effect: hot flashes” value is given as 64%; the “side effect: mood swings” value was 6%; the “side effect: sleep issues” value is recorded as 36%. Besides, the “side effect: weight gain” value in series [1] is 6%. Besides, the “biopharmaceutical categorization system (BCS) class” value in series [2] is given as “class II”.
